Experimental data as given in US8394969B2, “Cyclic benzimidazole derivatives useful as anti-diabetic agents” (Merck Sharp & Dohme Corp., priority 2008, dated 2013).
Counter-ions that a name gives are not always drawn.

The molecules below were run against recombinant human AMPK complex 1 (containing α1β1γ1) (Homo sapiens, UniProt Q13131+Q9Y478) (assay: […] (in vitro AMPK activation assay)). Conditions: read-out: % Maximum AMP Activation of human AMPK Complex 1, recombinant human AMPK complex 1 (α1β1γ1); basal activity subtracted.
Format: biochemical

Chain of recombinant human AMPK complex 1 (containing α1β1γ1) (Q13131 whole entry): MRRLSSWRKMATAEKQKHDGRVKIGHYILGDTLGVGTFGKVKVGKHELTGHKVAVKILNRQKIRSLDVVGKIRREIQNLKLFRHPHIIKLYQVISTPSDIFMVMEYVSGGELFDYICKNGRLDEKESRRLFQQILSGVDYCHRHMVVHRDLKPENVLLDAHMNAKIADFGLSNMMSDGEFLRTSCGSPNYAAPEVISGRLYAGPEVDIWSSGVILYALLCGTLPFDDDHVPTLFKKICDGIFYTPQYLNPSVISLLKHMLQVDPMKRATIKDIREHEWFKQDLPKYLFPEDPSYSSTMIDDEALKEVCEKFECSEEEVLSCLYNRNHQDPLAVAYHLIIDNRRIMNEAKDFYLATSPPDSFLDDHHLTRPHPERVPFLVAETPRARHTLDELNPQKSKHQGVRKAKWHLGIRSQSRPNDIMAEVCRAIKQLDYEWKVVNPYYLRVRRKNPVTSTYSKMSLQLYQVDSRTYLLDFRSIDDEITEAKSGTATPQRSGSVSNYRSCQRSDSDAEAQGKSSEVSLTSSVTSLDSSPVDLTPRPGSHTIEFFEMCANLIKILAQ
Chain of recombinant human AMPK complex 1 (containing α1β1γ1) (Q9Y478 whole entry): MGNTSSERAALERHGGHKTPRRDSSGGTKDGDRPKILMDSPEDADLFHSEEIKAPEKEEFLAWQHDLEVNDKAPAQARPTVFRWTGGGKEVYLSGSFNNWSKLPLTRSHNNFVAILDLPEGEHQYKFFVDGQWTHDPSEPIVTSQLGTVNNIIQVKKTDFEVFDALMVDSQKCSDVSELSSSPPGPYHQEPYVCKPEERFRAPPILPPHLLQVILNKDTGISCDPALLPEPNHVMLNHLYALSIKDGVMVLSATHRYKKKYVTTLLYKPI
Chain of recombinant human AMPK complex 1 (containing α1β1γ1) (P54619 whole entry partner): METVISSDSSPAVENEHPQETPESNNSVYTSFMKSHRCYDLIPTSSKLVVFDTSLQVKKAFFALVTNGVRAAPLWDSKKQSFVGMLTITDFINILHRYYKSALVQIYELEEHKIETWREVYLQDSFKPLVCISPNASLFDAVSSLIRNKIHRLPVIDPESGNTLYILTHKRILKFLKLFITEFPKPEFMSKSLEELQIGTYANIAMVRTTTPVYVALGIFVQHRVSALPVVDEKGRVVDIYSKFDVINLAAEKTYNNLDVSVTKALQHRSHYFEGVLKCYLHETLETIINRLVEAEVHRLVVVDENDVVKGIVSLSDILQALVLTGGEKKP

| SMILES | Emax [%] |
| --- | --- |
| Cc1ccc(Oc2nc3cc(-c4ccc(OC(F)(F)F)cc4)c(Cl)cc3[nH]2)cc1C(=O)O [Example 363, Ammonium 5-({6-chloro-5-[4-(trifluoromethoxy)phenyl]-1H-benzimidazol-2-yl}oxy)-2-methylbenzoate] | > 80 |
| Cc1ccc(Oc2nc3cc(-c4cccc(N(C)C)c4)c(Cl)cc3[nH]2)cc1C(=O)O [Example 346, Ammonium 5-({6-chloro-5-[3-(dimethylamino)phen-yl]-1H-benzimidazol-2-yl}oxy)-2-methylbenzoate] | > 80 |
| O=C(O)Cn1nnnc1Sc1nc2cc(-c3ccc(-c4ccccc4)cc3)c(Cl)cc2[nH]1 [Example 55, [5-(5-biphenyl-4-yl-6-chloro-1H-benzo-imidazol-2-ylsulfanyl)-tetrazol-1-yl]-acid, ammonium salt] | > 80 |

Same assay, conditions: recombinant human AMPK complex 1 (α1β1γ1); basal activity subtracted; read-out: % Maximum AMP Activation of human AMPK Complex 1

| SMILES | Emax [%] |
| --- | --- |
| Cc1ccc(Oc2nc3cc(-c4ccc(-c5ccc(C(=O)O)cc5)cc4)c(Cl)cc3[nH]2)cc1C(=O)O [Example 102, 4′-[2-(3-Carboxy-4-methyl-phenoxy)-6-chloro-1H-benzoimidazol-5-yl]-biphenyl-4-carboxylic acid] | > 80 |
| COc1ccc(C#Cc2cc3nc(Oc4ccc(C)c(C(=O)O)c4)[nH]c3cc2Cl)cn1 [Example 129, 5-[6-Chloro-5-(6-methoxy-pyridin-3-ylethynyl)-1H-benzoimidazol-2-yloxy]-2-methyl-benzoic acid] | > 80 |
| Cc1ccc(Oc2nc3cc(C#Cc4cncn4C)c(Cl)cc3[nH]2)cc1C(=O)O [Example 134, 5-[6-Chloro-5-(3-methyl-3H-imidazol-4-ylethynyl)-1H-benzoimidazol-2-yloxy]-2-methyl-benzoic acid] | > 80 |
| Cc1ccc(Oc2nc3cc(-c4cccc(-c5ccccc5)c4)c(Cl)cc3[nH]2)cc1C(=O)O [Example 302, 5-(5-Biphenyl-3-yl-6-chloro-1H-benzoimidazol-2-yloxy)-2-methyl-benzoic acid] | > 80 |
| Cc1nc(-c2ccc(C#Cc3cc4nc(Oc5ccc(C)c(C(=O)O)c5)[nH]c4cc3Cl)cc2)no1 [Example 80, 5-{6-Chloro-5-[4-(5-methyl-[1,2,4]oxadiazol-3-yl)-phenylethynyl]-1H-benzoicmidazol-2-yloxy}-2-methyl-benzoic acid] | > 80 |
| COC(=O)c1cc(Oc2nc3cc(C#Cc4cccc(C)c4)c(Cl)cc3[nH]2)ccc1C [Example 100, 5-(6-Chloro-5-m-tolylethynyl-1H-benzoimidazol-2-yloxy)-2-methyl-benzoic acid methyl ester] | > 80 |
| O=C(O)c1cc(Oc2nc3cc(-c4ccc(-c5ccccc5O)cc4)c(Cl)cc3[nH]2)cc(C(=O)O)c1 [Example 54, 5-[6-Chloro-5-(2′-hydroxy-biphenyl-4-yl)-1H-benzoimidazol-2-yloxy]-isophthalic acid] | > 80 |
| Cc1ccc(Oc2nc3cc(-c4ccc(-c5ccc(O)nc5)cc4)c(Cl)cc3[nH]2)cc1C(=O)O [Example 188, 5-({6-chloro-5-[4-(6-hydroxypyridin-3-yl)phenyl]-1H-benzimidazol-2-yl}oxy)-2-methylbenzoic acid] | > 80 |
| Cc1ccc(Oc2nc3cc(-c4ccc5[nH]ncc5c4)c(Cl)cc3[nH]2)cc1C(=O)O [Example 153, 5-[6-Chloro-5-(1H-indazol-5-yl)-1H-benzoimidazol-2-yloxy]-2-methyl-benzoic acid] | > 80 |
| Cc1cc(Oc2nc3cc(-c4ccc(C(C)(C)O)cc4)c(Cl)cc3[nH]2)cc(C(=O)O)c1C [Example 316, 5-{6-Chloro-5-[4-(1-hydroxy-1-methyl-ethyl)-phenyl]-1H-benzoimidazol-2-yloxy}-2,3-dimethyl-benzoic acid] | > 80 |
| Cc1ccc(Oc2nc3cc(-c4ccc5c(cnn5C)c4)c(Cl)cc3[nH]2)cc1C(=O)O [Example 142, 5-[6-Chloro-5-(1-methyl-1H-indazol-5-yl)-1H-benzoimidazol-2-yloxy]-2-methyl-benzoic acid] | > 80 |
| Cc1ccc(Oc2nc3cc(-c4ccc(C5(O)CC5)cc4)c(Cl)cc3[nH]2)cc1C(=O)O [Example 264, 5-{6-Chloro-5-[4-(1-hydroxy-cyclopropyl)-phenyl]-1H-benzoimidazol-2-yloxy}-2-methyl-benzoic acid] | > 80 |
| Cc1cc(Oc2nc3cc(-c4ccc(-c5ccc(O)nc5)cc4)c(Cl)cc3[nH]2)cc(C(=O)O)c1C [Example 313, 5-{6-Chloro-5-[4-(6-hydroxy-pyridin-3-yl)-phenyl]-1H-benzoimidazol-2-yloxy}-2,3-dimethyl-benzoic acid] | > 80 |
| Cc1ccc(Oc2nc3cc(C#Cc4ccc(CN)cc4)c(Cl)cc3[nH]2)cc1C(=O)O [Example 72, 5-[5-(4-Aminomethyl-phenylethynyl)-6-chloro-1H-benzimidazol-2-yloxy]-2-methyl-benzoic acid] | > 80 |
| Cc1ccc(Oc2nc3cc(-c4ccc(N5CCOCC5)cc4)c(F)cc3[nH]2)cc1C(=O)O [Example 247, 5-[6-Fluoro-5-(4-morpholin-4-yl-phenyl)-1H-benzoimidazol-2-yloxy]-2-methyl-benzoic acid] | > 80 |
| Cc1ccc(Oc2nc3cc(-c4nc5ccccc5s4)c(Cl)cc3[nH]2)cc1C(=O)O [Example 354, 5-(5-Benzothiazol-2-yl-6-chloro-1H-benzoimidazol-2-yloxy)-2-methyl-benzoic acid] | > 80 |
| Cc1ccc(Oc2nc3cc(-c4ccc(-c5ccccc5C)cc4)c(Cl)cc3[nH]2)cc1C(=O)O [Example 193, 5-{[6-chloro-5-(2′-methylbiphenyl-4-yl)-1H-benzimidazol-2-yl]oxy}-2-methylbenzoic acid] | > 80 |
| O=C(O)CCc1cccc(Oc2nc3cc(C#Cc4ccccc4)c(Cl)cc3[nH]2)c1 [Example 24, 3-[3-(6-Chloro-5-phenylethynyl-1H-benzoimidazol-2-yloxy)-phenyl]-propionic acid] | > 80 |
| Cc1ccc(Oc2nc3cc(-c4ccc5c(c4)[nH]c4ccccc45)c(Cl)cc3[nH]2)cc1C(=O)O [Example 147, 5-[5-(9H-Carbazol-2 yl)-6-chloro-1H-benzoimidazol-2-yloxy]-2-methyl-benzoic acid] | > 80 |
| Cc1ccc(Oc2nc3cc(-c4ccc(N5CCNCC5)cc4)c(Cl)cc3[nH]2)cc1C(=O)O [Example 178, 5-[6-Chloro-5-(4-piperazin-1-yl-phenyl)-1H-benzoimidazol-2-yloxy]-2-methyl-benzoic acid] | > 80 |
| Cc1ccc(Oc2nc3cc(-c4ccc5nnn(C)c5c4)c(Cl)cc3[nH]2)cc1C(=O)O [Example 149, 5-[6-Chloro-5-(3-methyl-3H-benzotriazol-5-yl)-1H-benzoimidazol-2-yloxy]-2-methyl-benzoic acid] | > 80 |
| O=C(O)c1ccc(COc2nc3cc(-c4ccc(-c5ccccc5)cc4)c(Cl)cc3[nH]2)cc1 [Example 226, 4-(5-Biphenyl-4-yl-6-chloro-1H-benzoimidazol-2-yloxymethyl)-benzoic acid] | > 80 |
| Cc1ccc(C#Cc2cc3nc(Oc4ccc(C)c(C(=O)O)c4)[nH]c3cc2Cl)cc1 [Example 45, 5-(6-Chloro-5-p-tolyethylnyl-1H-benzoimidazol-2-yloxy)-2-methyl-benzoic acid] | > 80 |
| Cc1ccc(Oc2nc3cc(-c4ccc(-c5ccn[nH]5)cc4)c(F)cc3[nH]2)cc1C(=O)O [Example 246, 5-{6-Fluoro-5-[4-(2H-pyrazol-3-yl)-phenyl]-1H-benzoimidazol-2-yloxy}-2-methyl-benzoic acid] | > 80 |
| Cc1ccc(Oc2nc3cc(-c4ccc5c(c4)CCN5C)c(Cl)cc3[nH]2)cc1C(=O)O [Example 282, 5-[6-Chloro-5-(1-methyl-2,3-dihydro-1H-indol-5-yl)-1H-benzoimidazol-2-yloxy]-2-methyl-benzoic acid] | > 80 |
| Cc1ccc(Oc2nc3cc(-c4ccc(-c5ccc(F)cc5)cc4)c(Cl)cc3[nH]2)cc1C(=O)O [Example 105, 5-[6-Chloro-5-(4′-fluoro-biphenyl-4-yl)-1H-benzoimidazol-2-yloxy]-2-methyl-benzoic acid] | > 80 |
| COC(=O)c1cc(Oc2nc3cc(-c4ccc(-c5ccccc5F)cc4)c(Cl)cc3[nH]2)ccc1C [Example 195, Methyl 5-{[6-chloro-5-(2′-fluorobiphenyl-4-yl)-1H-benzimidazol-2-yl]oxy}-2-methylbenzoate] | > 80 |
| O=C(O)Cc1ccc(Oc2nc3cc(-c4ccc(-c5ccccc5)cc4)c(Cl)cc3[nH]2)cc1 [Example 26, [4-(5-Biphenyl-4-yl-6-chloro-1H-benzoimidazol-2-yloxy)-phenyl]-acetic acid] | > 80 |
| COC(=O)c1cc(Oc2nc3cc(C#Cc4ccccc4)c(Cl)cc3[nH]2)cc(C(=O)OC)c1 [Example 49, 5-(6-Chloro-5-phenylethynyl-1H-benzoimidazol-2-yloxy)-isophthalic acid dimethyl ester] | > 80 |
| Cc1ccc(Oc2nc3cc(-c4ccc(C(C)N(C)C)cc4)c(Cl)cc3[nH]2)cc1C(=O)O (stereo not shown) [Example 292, 1-{4-[2-(3-carboxy-4-methylphenoxy)-6-chloro-1H-benzimidazol-5-yl]phenyl}-N,N-dimethylethanaminium trifluoroacetate] | > 80 |

Same assay, conditions: recombinant human AMPK complex 1 (α1β1γ1); read-out: EC50

| SMILES | EC50 [nM] |
| --- | --- |
| Cc1ccc(Oc2nc3cc(C#Cc4ccccc4F)c(Cl)cc3[nH]2)cc1C(=O)O [Example 67, 5({6-chloro-5-[(2-fluorophenyl)ethynyl]-1H-benzimidazol-2-yl}oxy)-2-methylbenzoic acid] | 3 |
| Cc1ccc(Oc2nc3cc(-c4ccc(C5CC5)cc4)c(Cl)cc3[nH]2)cc1C(=O)O [Example 230, 5-{[6-chloro-5-(4-cyclopropylphenyl)-1H-benzimidazol-2-yl]oxy}-2-methylbenzoic acid] | 9 |
| Cc1ccc(Oc2nc3cc(-c4ccc5c(ccn5C)c4)c(Cl)cc3[nH]2)cc1C(=O)O [Example 229, 5-{[6-chloro-5-(1-methyl-1H-indol-5-yl)-1H-benzimidazol-2-yl]oxy}-2-methylbenzoic acid] | 3 |
| Cc1ccc(Oc2nc3cc(-c4ccc(-c5ccc(C(=O)O)cc5)cc4)c(F)cc3[nH]2)cc1C(=O)O [Example 184, 4′-[2-3-carboxy-4-methylphenoxy-6-fluoro-1H-benzimidazol-5-yl]biphenyl-4-carboxylic acid] | 8 |
